Consider 1 substance from patent US20100003754A1, “METHODS OF DIFFERENTIATING STEM CELLS” (Ossacur AG, priority 2006, published 2010).

Assay [1] concerns human mesenchymal stem cells (BMMSC). The experiment in a line: Cell proliferation, CellTiter 96 (MTT). The format is cell-based. The note with it: TGF-β1 10 ng/ml; stayed at a lower proliferation rate than the control groups. On the procedure:
(§1) The cells were trypsinized and then counted using trypan blue. 60×10^3 or 15×10^3 mesenchymal stem cells were seeded in a 25 cm^2 cell culture bottle or in a 12-well plate. Each vessel was charged with an appropriate amount of standard medium (control group) or a medium which contained the joint or meniscus extract (of bovine origin) in a dilute solution of 1:25 or 1:50. Recombinant TGF-β1 protein (R&D Systems) with a concentration of 10 ng/ml was used for chondrocytic differentiation of the BMMSC as positive control. Cell supernatants were collected and stored at −80° C.
Investigations on the cell proliferation were carried out using “CellTiter 96 Non-Radio-active” (Promega). This is a method based on 3-(4,5-dimethylthiazol-2-yl)-2,5-diphenyltetrazolium bromide (MTT) which determines the property of metabolically active cells of converting a tetrazolium salt. For example, the conversion of pale yellow MTT by cellular dehydrogenases into the dark blue, water-insoluble formazan is proportional to the activity of the dehydrogenases and thus to the survival rate of the cells. The absorbance is measured at a wavelength of 595 nm. The cells were counted and seeded in a density of […] in a 96-well round-bottom plate. The cell proliferation was determined on day 1, 3, 7 and 14. […] The absorbance was measured at the wavelength of 595 nm with a reference wavelength of 655 nm.

In assay [2] the test system is BMMSC. The assay can be described thus: Quantification of chondroitin sulfate (Alcian blue). The format is cell-based, human. The note with it: parallel addition of 10 ng/ml TGF-β1. How it is done:
as §1
The cells were washed with the PBS and then incubated with Alcian blue stain (1% Alcian blue in 3% strength acetic acid) for 20 minutes. The cells were decolorized by washing three times with 3% strength acetic acid and washing once with water. To quantify the stain which has been taken up, the cells were solubilized by shaking in 1% strength SDS solution at room temperature for 30 minutes and then heating at 90° C. for one hour. The absorbance was detected at the wavelength of 595 nm.

For assay [3], the system named is BMMSC. The assay can be described thus: Real time RT-PCR of cartilage-specific differentiation markers (SOX9, Aggrecan). The note with it: transcription level; treatment with TGF-β1. The format is cell-based, human. How it is done: Total cellular ribonucleic acid (RNA) was extracted using “NucleoSpin RNA II” from Macherey-Nagel. 1 μg of the RNA was amplified using a “one-step RT-PCR kit” (ABgene, UK). Real time (RT) PCR primers specific for collagen type I, SOX9, Aggrecan and glyceraldehyde-3-phosphate dehydrogenase (GAPDH) were used. Amplification of the so-called housekeeping gene GAPDH was used to verify the quality of the RNA and ensure uniform loading of resolving gels with the samples. A real time reverse transcription PCR was carried out using a LightCycler (Roche Diagnostic). The RT-PCR conditions included an RT step of 20 minutes at 61° C. to produce single-stranded cDNA from mRNA, followed by an inactivation of reverse transcriptase and denaturation at 95° C. for 30 seconds. 40 amplification cycles of one second at 95° C., of 15 seconds at 58° C. and of 13 seconds at 72° C. were carried out. Finally, a cooling step of 30 seconds at 40° C. was carried out.

Assay [4] deals with BMMSC. The experiment in a line: Aggrecan immunofluorescence. In kind it is cell-based, human. The note with it: day 14; recombinant TGF-β1 only. On the procedure: The cells were seeded in a density of 15×10^3 in a 12-well plate. 14 days after the treatment with the extracts, the cells were washed with PBS and then fixed with ice-cold 70% strength ethanol for at least 18 hours. The cells were then blocked in 3% strength goat serum (normal goat serum NGS) for one hour, and thereafter mouse anti-Aggrecan antibodies (Chemicon) were used with a concentration of 1 μg/ml and incubated at 4° C. for at least 18 hours. The primary antibodies were then removed, the cells were washed three times with PBS and subsequently incubated with anti-mouse FITC-conjugated IgM (Molecular Probes) in a ratio of 1:1000 for one hour. The secondary antibodies were removed and the cells were washed three times with the PBS. A negative control was carried out with the secondary antibody. After the incubation, the cells were washed, put on supports and inspected using a fluorescence microscope.

On to “TGF-β1: Recombinant TGF-β1 protein (R&D Systems), 10 ng/ml, positive control for chondrocytic differentiation”, for which the cell proliferation result in assay [1] was “graduated increase”. For the same substance, the chondroitin sulfate entry in the assay with BMMSC [2] was “increase in chondroitin sulfate”. In addition, the mRNA for aggrecan result in the assay with BMMSC [3] was “significantly increased”. Moreover, the “number of aggrecan-positive cells compared with the untreated control samples” value in the assay on BMMSC [4] was “larger numbers”.
